Measurements: PubChem BioAssay (NCI)
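Where inhibition never reached the appropriate level, the endpoint shown equals the highest concentration tested. Otherwise, values were interpolated linearly from a five-concentration, 48-hour dose response in 96-well plates. GI50 is the concentration that inhibits growth by half. The concentration for full growth arrest is given as TGI.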

Key:
Test in all cases: DTP human tumour cell line panel, 48 h
[1] = system: HL-60(TB) leukemia
[2] = system: OVCAR-5 ovarian
[3] = system: NCI-H23 lung
[4] = system: MDA-MB-468 breast
[5] = system: MOLT-4 leukemia
[6] = system: DU-145 prostate
[7] = system: HS 578T breast
[8] = system: OVCAR-4 ovarian
[9] = system: SK-MEL-5 melanoma
[10] = system: T-47D breast
[11] = system: SF-268 CNS
[12] = system: SN12C renal
[13] = system: HT29 colon
[14] = system: SNB-19 CNS
[15] = system: RXF 393 renal
[16] = system: UACC-62 melanoma
[17] = system: TK-10 renal
[18] = system: OVCAR-8 ovarian
[19] = system: RPMI-8226 leukemia
[20] = system: HOP-62 NSCLC
[21] = system: HCC-2998 colon
[22] = system: U251 CNS
[23] = system: HOP-92 NSCLC
[24] = system: A549 NSCLC
[25] = system: MDA-MB-435
[26] = system: SW-620 colon
[27] = system: BT-549 breast
[28] = system: LOX IMVI melanoma
[29] = system: MCF7 breast
[30] = system: SK-MEL-28 melanoma
[31] = system: MALME-3M melanoma
[32] = system: SK-OV-3 ovarian
[33] = system: CAKI-1 renal
[34] = system: EKVX NSCLC
[35] = system: A498 renal
[36] = system: HCT-15 colon
[37] = system: NCI/ADR-RES ovarian
[38] = system: UO-31 renal
[39] = system: HCT-116 colon
[40] = system: IGROV1 ovarian
[41] = system: CCRF-CEM leukemia
[42] = system: SF-539 CNS
[43] = system: MDA-MB-231 breast
[44] = system: NCI-H522 lung
[45] = system: NCI-H460 lung
[46] = system: KM12 colon
[47] = system: UACC-257 melanoma
[48] = system: M14 melanoma
[49] = system: SF-295 CNS
[50] = system: K-562 leukemia
[51] = system: 786-0 renal
[52] = system: OVCAR-3 ovarian
[53] = system: SR leukemia
[54] = system: ACHN renal
[55] = system: COLO 205 colon
[56] = system: PC-3 prostate
[57] = system: SK-MEL-2 melanoma
[58] = system: NCI-H226 lung

SMILES: COc1ccc(C(=O)/C=C/c2c(F)cccc2Cl)cc1S(N)(=O)=O
- GI50 [1]: 1650 nM
- TGI [1]: 6.46 µM
- GI50 [2]: 3020 nM
- TGI [2]: 11.1 µM
- GI50 [3]: 3040 nM
- TGI [3]: 10.8 µM
- GI50 [4]: 1470 nM
- TGI [4]: 4.12 µM
- GI50 [5]: 2410 nM
- TGI [5]: 7.58 µM
- GI50 [6]: 3.3 µM
- TGI [6]: 12.5 µM
- GI50 [7]: 6.43 µM
- TGI [7]: > 100 µM
- GI50 [8]: 4.13 µM
- TGI [8]: 20.5 µM
- GI50 [9]: 3060 nM
- TGI [9]: 12.3 µM
- GI50 [10]: 2420 nM
- TGI [10]: 9.53 µM
- GI50 [11]: 3.33 µM
- TGI [11]: 16.7 µM
- GI50 [12]: 2590 nM
- TGI [12]: 10.5 µM
- GI50 [13]: 1910 nM
- TGI [13]: 3.81 µM
- GI50 [14]: 4.24 µM
- TGI [14]: 15.2 µM
- GI50 [15]: 1740 nM
- TGI [15]: 4.56 µM
- GI50 [16]: 2020 nM
- TGI [16]: 6.55 µM
- GI50 [17]: 3530 nM
- TGI [17]: 9.79 µM
- GI50 [18]: 3010 nM
- TGI [18]: 12.3 µM
- GI50 [19]: 2570 nM
- TGI [19]: 8 µM
- GI50 [20]: 3010 nM
- TGI [20]: 9.42 µM
- GI50 [21]: 2780 nM
- TGI [21]: 10.3 µM
- GI50 [22]: 1730 nM
- TGI [22]: 3.69 µM
- GI50 [23]: 3580 nM
- TGI [23]: 15.3 µM
- GI50 [24]: 2380 nM
- TGI [24]: 10.1 µM
- GI50 [25]: 3390 nM
- TGI [25]: 15.7 µM
- GI50 [26]: 3.61 µM
- TGI [26]: 20.7 µM
- GI50 [27]: 2720 nM
- TGI [27]: 8.63 µM
- GI50 [28]: 1610 nM
- TGI [28]: 3340 nM
- GI50 [29]: 2190 nM
- TGI [29]: 11.2 µM
- GI50 [30]: 3600 nM
- TGI [30]: 14 µM
- GI50 [31]: 3.99 µM
- TGI [31]: 16.4 µM
- GI50 [32]: 5.36 µM
- TGI [32]: 17.1 µM
- GI50 [33]: 4.07 µM
- TGI [33]: 13.9 µM
- GI50 [34]: 4.12 µM
- TGI [34]: 14.4 µM
- GI50 [35]: 15.9 µM
- TGI [35]: 32 µM
- GI50 [36]: 1350 nM
- TGI [36]: 3380 nM
- GI50 [37]: 2830 nM
- TGI [37]: 9.24 µM
- GI50 [38]: 2940 nM
- TGI [38]: 11.9 µM
- GI50 [39]: 1760 nM
- TGI [39]: 3780 nM
- GI50 [40]: 2800 nM
- TGI [40]: 10.4 µM
- GI50 [41]: 2590 nM
- TGI [41]: 6.78 µM
- GI50 [42]: 2010 nM
- TGI [42]: 4.22 µM
- GI50 [43]: 2880 nM
- TGI [43]: 7.71 µM
- GI50 [44]: 1670 nM
- TGI [44]: 3.51 µM
- GI50 [45]: 3.01 µM
- TGI [45]: > 100 µM
- GI50 [46]: 2590 nM
- TGI [46]: 6.66 µM
- GI50 [47]: 2.99 µM
- TGI [47]: 16.6 µM
- GI50 [48]: 2620 nM
- TGI [48]: 10.6 µM
- GI50 [49]: 3100 nM
- TGI [49]: 11 µM
- GI50 [50]: 2820 nM
- TGI [50]: 14.2 µM
- GI50 [51]: 2990 nM
- TGI [51]: 10.5 µM
- GI50 [52]: 2530 nM
- TGI [52]: 8.4 µM
- GI50 [53]: 1410 nM
- TGI [53]: 5.61 µM
- GI50 [54]: 2800 nM
- TGI [54]: 8.33 µM
- GI50 [55]: 2170 nM
- TGI [55]: 3.95 µM
- GI50 [56]: 4.67 µM
- TGI [56]: 19.7 µM
- GI50 [57]: 3.96 µM
- TGI [57]: 16.4 µM
- GI50 [58]: 3.23 µM
- TGI [58]: 12.3 µM

SMILES: COc1ccc(C(=O)/C=C/c2cccc(Br)c2)cc1S(N)(=O)=O
- GI50 [2]: 1740 nM
- TGI [2]: 4.25 µM
- GI50 [3]: 1770 nM
- TGI [3]: 3.43 µM
- GI50 [4]: 1390 nM
- TGI [4]: 2.87 µM
- GI50 [5]: 2170 nM
- TGI [5]: 4.71 µM
- GI50 [6]: 3.56 µM
- TGI [6]: 12.8 µM
- GI50 [7]: 16 µM
- TGI [7]: 68.6 µM
- GI50 [8]: 4.08 µM
- TGI [8]: 17.3 µM
- GI50 [9]: 2310 nM
- TGI [9]: 6.38 µM
- GI50 [10]: 2130 nM
- TGI [10]: 6.01 µM
- GI50 [11]: 3.02 µM
- TGI [11]: 12.7 µM
- GI50 [12]: 1440 nM
- TGI [12]: 3.48 µM
- GI50 [13]: 1610 nM
- TGI [13]: 3.28 µM
- GI50 [14]: 2.91 µM
- TGI [14]: 12 µM
- GI50 [15]: 1600 nM
- TGI [15]: 3.2 µM
- GI50 [16]: 1680 nM
- TGI [16]: 3.89 µM
- GI50 [17]: 2230 nM
- TGI [17]: 11.9 µM
- GI50 [18]: 2280 nM
- TGI [18]: 10.6 µM
- GI50 [19]: 2050 nM
- TGI [19]: 5.52 µM
- GI50 [20]: 2050 nM
- TGI [20]: 5.74 µM
- GI50 [21]: 1450 nM
- TGI [21]: 2.99 µM
- GI50 [22]: 1340 nM
- TGI [22]: 2.69 µM
- GI50 [23]: 1800 nM
- TGI [23]: 11.8 µM
- GI50 [24]: 2820 nM
- TGI [24]: 10.2 µM
- GI50 [25]: 2060 nM
- TGI [25]: 7.14 µM
- GI50 [27]: 1510 nM
- TGI [27]: 3.46 µM
- GI50 [28]: 1240 nM
- TGI [28]: 2480 nM
- GI50 [29]: 1580 nM
- TGI [29]: 5.22 µM
- GI50 [30]: 2150 nM
- TGI [30]: 5.46 µM
- GI50 [31]: 3.19 µM
- TGI [31]: 14 µM
- GI50 [32]: 4.06 µM
- TGI [32]: 15 µM
- GI50 [33]: 2.28 µM
- TGI [33]: 7.89 µM
- GI50 [34]: 5.24 µM
- TGI [34]: 18.5 µM
- GI50 [35]: 13.8 µM
- TGI [35]: 27 µM
- GI50 [36]: 1010 nM
- TGI [36]: 2390 nM
- GI50 [37]: 2210 nM
- TGI [37]: 7.13 µM
- GI50 [38]: 1290 nM
- TGI [38]: 2.7 µM
- GI50 [39]: 1040 nM
- TGI [39]: 2210 nM
- GI50 [40]: 2240 nM
- TGI [40]: 8.6 µM
- GI50 [41]: 2540 nM
- TGI [41]: 6.12 µM
- GI50 [42]: 1690 nM
- TGI [42]: 3.44 µM
- GI50 [43]: 2450 nM
- TGI [43]: 6.75 µM
- GI50 [44]: 1630 nM
- TGI [44]: 3.23 µM
- GI50 [45]: 3.16 µM
- TGI [45]: 11.4 µM
- GI50 [46]: 1330 nM
- TGI [46]: 3.29 µM
- GI50 [47]: 3.27 µM
- TGI [47]: 14.5 µM
- GI50 [48]: 1810 nM
- TGI [48]: 4.64 µM
- GI50 [49]: 2090 nM
- TGI [49]: 6.44 µM
- GI50 [50]: 1350 nM
- TGI [50]: 4.41 µM
- GI50 [51]: 1630 nM
- TGI [51]: 3.33 µM
- GI50 [52]: 1290 nM
- TGI [52]: 3.17 µM
- GI50 [53]: 732 nM
- TGI [53]: 3.54 µM
- GI50 [54]: 1670 nM
- TGI [54]: 3.11 µM
- GI50 [55]: 1920 nM
- TGI [55]: 3.51 µM
- GI50 [56]: 2.02 µM
- TGI [56]: 4.93 µM
- GI50 [57]: 8.73 µM
- TGI [57]: 21.9 µM
- GI50 [58]: 2.81 µM
- TGI [58]: 11.4 µM
